In patent publication US6362369B1, “Phthalic acid diamide derivatives fluorine-containing aniline compounds as starting material, agricultural and horticultural insecticides, and a method for application of the insecticides” (Nihon Nohyaku Co., Ltd., priority 1997, dated 2002):

Columns and labels:
Assay type in all cases: in vivo
[1] = test system: rice leafroller (Cnaphalocrocis medinalis); experiment: Insecticidal effect on rice leafroller (Test Example 3); conditions: 500 ppm, four days after inoculation, 25° C., humidity 70%; for Insecticidal effect on rice leafroller (Test Example 3), judged grade: rice lamina dip, third-instar larvae; for Insecticidal effect, Test Example 3: rice leafroller third-instar larvae, rice lamina immersed
Summary of the method: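 Groups of 10 third-instar larvae, in triplicate, are placed on air-dried lamina resting on wet filter paper. Incubation runs four days at 25° C with 70% humidity before survivors and dead are tallied.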

[2] = test system: diamondback moth (Plutella xylostella); experiment: Insecticidal effect on diamondback moth (Test Example 1); conditions: for Insecticidal effect on diamondback moth (Test Example 1), judged grade: mortality judged according to the criterion shown in Test Example 1; for Insecticidal effect, Test Example 1: diamondback moth, mortality judged by criterion of Test Example 1
Summary of the method: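 Eggs laid by adult moths on Chinese cabbage seedlings, which were immersed in test solution, air-dried and kept at 25 °C. Hatched insects counted 6 days after immersion and mortality calculated, with effect graded by criterion; triplicate groups of 10 insects.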

[3] = test system: common cutworm (Spodoptera Litura); experiment: Insecticidal effect on common cutworm (Test Example 2); conditions: 500 ppm, eight days after inoculation, 25° C.; for Insecticidal effect on common cutworm (Test Example 2), judged grade: cabbage leaf dip, second-instar larvae; for Insecticidal effect, Test Example 2: common cutworm second-instar larvae, cabbage leaf immersed
Summary of the method: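 Air-dried treated material was placed in a closed dish with second-instar larvae and held at 25° C. Dead and live insects were counted eight days after inoculation, and mortality was calculated and scored against a fixed insecticidal-effect criterion. Three replicate groups of 10 insects were used.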

## CC(C)NC(=O)c1c(I)cccc1C(=O)Nc1ccc(C(F)(F)C(F)(F)F)cc1 [compound 895]
[1]
  Insecticidal effect on rice leafroller (Test Example 3), judged grade: A (100)
[2]
  Insecticidal effect on diamondback moth (Test Example 1), judged grade: A (100)
[3]
  Insecticidal effect on common cutworm (Test Example 2), judged grade: A (100)

## CC(C)NC(=O)c1c(F)cccc1C(=O)Nc1ccc(Oc2ccc(C(F)(F)F)cc2Cl)cc1F [compound 901]
[1]
  Insecticidal effect on rice leafroller (Test Example 3), judged grade: A (100)
[2]
  Insecticidal effect on diamondback moth (Test Example 1), judged grade: A (100)
[3]
  Insecticidal effect on common cutworm (Test Example 2), judged grade: D (79-50)

## CC(C)NC(=O)c1c(Cl)cccc1C(=O)Nc1ccc(Oc2ccc(C(F)(F)F)cc2Cl)cc1F [compound 903]
[1]
  Insecticidal effect on rice leafroller (Test Example 3), judged grade: A (100)
[2]
  Insecticidal effect on diamondback moth (Test Example 1), judged grade: A (100)
[3]
  Insecticidal effect on common cutworm (Test Example 2), judged grade: A (100)

## Cc1cc(SC(F)(F)C(F)(F)F)ccc1NC(=O)c1cccc(F)c1C(=O)NC(C)C [compound 905]
[1]
  Insecticidal effect on rice leafroller (Test Example 3), judged grade: A (100)
[2]
  Insecticidal effect on diamondback moth (Test Example 1), judged grade: A (100)
[3]
  Insecticidal effect on common cutworm (Test Example 2), judged grade: A (100)

## Cc1cc(SC(F)(F)C(F)(F)F)ccc1NC(=O)c1c(F)cccc1C(=O)NC(C)C [compound 906]
[1]
  Insecticidal effect on rice leafroller (Test Example 3), judged grade: A (100)
[2]
  Insecticidal effect on diamondback moth (Test Example 1), judged grade: A (100)
[3]
  Insecticidal effect on common cutworm (Test Example 2), judged grade: D (79-50)

## Cc1cc(SC(F)(F)C(F)(F)F)ccc1NC(=O)c1cccc(Cl)c1C(=O)NC(C)C [compound 907]
[1]
  Insecticidal effect on rice leafroller (Test Example 3), judged grade: A (100)
[2]
  Insecticidal effect on diamondback moth (Test Example 1), judged grade: A (100)
[3]
  Insecticidal effect on common cutworm (Test Example 2), judged grade: A (100)

## Cc1cc(SC(F)(F)C(F)(F)F)ccc1NC(=O)c1c(Cl)cccc1C(=O)NC(C)C [compound 908]
[1]
  Insecticidal effect on rice leafroller (Test Example 3), judged grade: A (100)
[2]
  Insecticidal effect on diamondback moth (Test Example 1), judged grade: A (100)
[3]
  Insecticidal effect on common cutworm (Test Example 2), judged grade: D (79-50)

## Cc1cc(SC(F)(F)C(F)(F)F)ccc1NC(=O)c1cccc(I)c1C(=O)NC(C)C [compound 909]
[1]
  Insecticidal effect on rice leafroller (Test Example 3), judged grade: A (100)
[2]
  Insecticidal effect on diamondback moth (Test Example 1), judged grade: A (100)
[3]
  Insecticidal effect on common cutworm (Test Example 2), judged grade: A (100)

## CC(C)NC(=O)c1c(Cl)cccc1C(=O)Nc1ccc(C=C(Cl)Cl)cc1 [compound 915]
[1]
  Insecticidal effect on rice leafroller (Test Example 3), judged grade: A (100)
[2]
  Insecticidal effect on diamondback moth (Test Example 1), judged grade: A (100)
[3]
  Insecticidal effect on common cutworm (Test Example 2), judged grade: A (100)

## CC(C)NC(=O)c1c(I)cccc1C(=O)Nc1ccc(C=C(Cl)C(F)(F)F)cc1 [compound 917]
[1]
  Insecticidal effect on rice leafroller (Test Example 3), judged grade: A (100)
[2]
  Insecticidal effect on diamondback moth (Test Example 1), judged grade: A (100)
[3]
  Insecticidal effect on common cutworm (Test Example 2), judged grade: A (100)

## Cc1cc(Cl)ccc1NC(=O)c1ccccc1C(=O)NC(C)(C)C [compound 927]
[1]
  Insecticidal effect on rice leafroller (Test Example 3), judged grade: A (100)
[2]
  Insecticidal effect on diamondback moth (Test Example 1), judged grade: A (100)
[3]
  Insecticidal effect on common cutworm (Test Example 2), judged grade: A (100)

## CC(C)(C)NC(=O)c1ccccc1C(=O)Nc1ccc(OC(F)(F)F)cc1 [compound 929]
[1]
  Insecticidal effect on rice leafroller (Test Example 3), judged grade: A (100)
[2]
  Insecticidal effect on diamondback moth (Test Example 1), judged grade: A (100)
[3]
  Insecticidal effect on common cutworm (Test Example 2), judged grade: A (100)

## Cc1cc(OC(F)(F)F)ccc1NC(=O)c1ccccc1C(=O)NC(C)(C)C [compound 930]
[1]
  Insecticidal effect on rice leafroller (Test Example 3), judged grade: A (100)
[2]
  Insecticidal effect on diamondback moth (Test Example 1), judged grade: A (100)
[3]
  Insecticidal effect on common cutworm (Test Example 2), judged grade: A (100)

## Cc1cc(C(F)(F)C(F)(F)F)ccc1NC(=O)c1ccccc1C(=O)NC(C)(C)C [compound 931]
[1]
  Insecticidal effect on rice leafroller (Test Example 3), judged grade: A (100)
[2]
  Insecticidal effect on diamondback moth (Test Example 1), judged grade: A (100)
[3]
  Insecticidal effect on common cutworm (Test Example 2), judged grade: A (100)

## Cc1cc(C(F)(F)C(F)(F)F)ccc1NC(=O)c1cccc(Cl)c1C(=O)NC(C)(C)C [compound 932]
[1]
  Insecticidal effect on rice leafroller (Test Example 3), judged grade: A (100)
[2]
  Insecticidal effect on diamondback moth (Test Example 1), judged grade: A (100)
[3]
  Insecticidal effect on common cutworm (Test Example 2), judged grade: A (100)

## CC(C)(C)NC(=O)c1c(Cl)cccc1C(=O)Nc1ccc(C(F)(F)F)cc1 [compound 934]
[1]
  Insecticidal effect on rice leafroller (Test Example 3), judged grade: A (100)
[2]
  Insecticidal effect on diamondback moth (Test Example 1), judged grade: A (100)
[3]
  Insecticidal effect on common cutworm (Test Example 2), judged grade: A (100)

## CC(C)(C)NC(=O)c1cccc(Cl)c1C(=O)Nc1ccc(C(F)(F)F)cc1 [compound 935]
[1]
  Insecticidal effect on rice leafroller (Test Example 3), judged grade: A (100)
[2]
  Insecticidal effect on diamondback moth (Test Example 1), judged grade: A (100)
[3]
  Insecticidal effect on common cutworm (Test Example 2), judged grade: A (100)

## CC(C)(C)NC(=O)c1c(Cl)cccc1C(=O)Nc1ccc(OC(F)(F)F)cc1 [compound 936]
[1]
  Insecticidal effect on rice leafroller (Test Example 3), judged grade: A (100)
[2]
  Insecticidal effect on diamondback moth (Test Example 1), judged grade: A (100)
[3]
  Insecticidal effect on common cutworm (Test Example 2), judged grade: A (100)

## Cc1cc(Cl)ccc1NC(=O)c1cccc(Cl)c1C(=O)NC(C)(C)C [compound 937]
[1]
  Insecticidal effect on rice leafroller (Test Example 3), judged grade: A (100)
[2]
  Insecticidal effect on diamondback moth (Test Example 1), judged grade: A (100)
[3]
  Insecticidal effect on common cutworm (Test Example 2), judged grade: A (100)

## CC(C)(C)NC(=O)c1c(I)cccc1C(=O)Nc1ccc(C(F)(F)F)cc1 [compound 939]
[1]
  Insecticidal effect, Test Example 3: A (100)
[2]
  Insecticidal effect, Test Example 1: A (100)
[3]
  Insecticidal effect, Test Example 2: A (100)

## CC(C)(C)NC(=O)c1c(I)cccc1C(=O)Nc1ccc(OC(F)(F)F)cc1 [compound 940]
[1]
  Insecticidal effect, Test Example 3: A (100)
[2]
  Insecticidal effect, Test Example 1: A (100)
[3]
  Insecticidal effect, Test Example 2: A (100)

## Cc1cc(Cl)ccc1NC(=O)c1cccc(I)c1C(=O)NC(C)(C)C [compound 941]
[1]
  Insecticidal effect, Test Example 3: A (100)
[2]
  Insecticidal effect, Test Example 1: A (100)
[3]
  Insecticidal effect, Test Example 2: A (100)

## Cc1cc(C(F)(F)C(F)(F)F)ccc1NC(=O)c1cccc(I)c1C(=O)NC(C)(C)C [compound 942]
[1]
  Insecticidal effect, Test Example 3: A (100)
[2]
  Insecticidal effect, Test Example 1: A (100)
[3]
  Insecticidal effect, Test Example 2: A (100)

## Cc1cc(C(F)(F)C(F)(F)F)ccc1NC(=O)c1c(I)cccc1C(=O)NC(C)(C)C [compound 943]
[1]
  Insecticidal effect, Test Example 3: A (100)
[2]
  Insecticidal effect, Test Example 1: A (100)
[3]
  Insecticidal effect, Test Example 2: C (89-80)

## Cc1cc(OC(F)(F)F)ccc1NC(=O)c1cccc(Cl)c1C(=O)NC(C)(C)C [compound 944]
[1]
  Insecticidal effect, Test Example 3: A (100)
[2]
  Insecticidal effect, Test Example 1: A (100)
[3]
  Insecticidal effect, Test Example 2: A (100)

## CCCCNC(=O)c1c(I)cccc1C(=O)Nc1ccc(C(F)(F)C(F)(F)F)cc1C [compound 945]
[1]
  Insecticidal effect, Test Example 3: A (100)
[2]
  Insecticidal effect, Test Example 1: A (100)
[3]
  Insecticidal effect, Test Example 2: A (100)

## CCCCCNC(=O)c1c(I)cccc1C(=O)Nc1ccc(C(F)(F)C(F)(F)F)cc1C [compound 947]
[1]
  Insecticidal effect, Test Example 3: A (100)
[2]
  Insecticidal effect, Test Example 1: A (100)
[3]
  Insecticidal effect, Test Example 2: A (100)

## CCCCCCNC(=O)c1c(I)cccc1C(=O)Nc1ccc(C(F)(F)C(F)(F)F)cc1C [compound 949]
[1]
  Insecticidal effect, Test Example 3: A (100)
[2]
  Insecticidal effect, Test Example 1: A (100)
[3]
  Insecticidal effect, Test Example 2: A (100)

## CCc1cc(I)ccc1NC(=O)c1cccc(I)c1C(=O)NC(C)C [compound 951]
[1]
  Insecticidal effect, Test Example 3: A (100)
[2]
  Insecticidal effect, Test Example 1: A (100)
[3]
  Insecticidal effect, Test Example 2: A (100)

## Cc1cc(C(F)(F)C(F)(F)F)ccc1NC(=O)c1cccc(C)c1C(=O)NC(C)C [compound 953]
[1]
  Insecticidal effect, Test Example 3: A (100)
[2]
  Insecticidal effect, Test Example 1: A (100)
[3]
  Insecticidal effect, Test Example 2: A (100)

## Cc1cc(C(F)(F)C(F)(F)F)ccc1NC(=O)c1cccc(C)c1C(=O)NC(C)(C)C [compound 955]
[1]
  Insecticidal effect, Test Example 3: A (100)
[2]
  Insecticidal effect, Test Example 1: A (100)
[3]
  Insecticidal effect, Test Example 2: A (100)

## Cc1cc(OC(F)(F)F)ccc1NC(=O)c1cccc(I)c1C(=O)NC(C)(C)C [compound 957]
[1]
  Insecticidal effect, Test Example 3: A (100)
[2]
  Insecticidal effect, Test Example 1: A (100)
[3]
  Insecticidal effect, Test Example 2: A (100)

## Cc1cc(C#Cc2ccc(Cl)cc2Cl)ccc1NC(=O)c1cccc(Cl)c1C(=O)NC(C)C [compound 971]
[1]
  Insecticidal effect, Test Example 3: A (100)
[2]
  Insecticidal effect, Test Example 1: A (100)
[3]
  Insecticidal effect, Test Example 2: A (100)

## CC(C)NC(=O)c1c(Cl)cccc1C(=O)Nc1ccc2c(c1)OC(F)(F)C2(F)F [compound 973]
[1]
  Insecticidal effect, Test Example 3: A (100)
[2]
  Insecticidal effect, Test Example 1: A (100)
[3]
  Insecticidal effect, Test Example 2: A (100)

## CC(C)NC(=O)c1c(I)cccc1C(=O)Nc1ccc2c(c1)OC(F)(F)C2(F)F [compound 974]
[1]
  Insecticidal effect, Test Example 3: A (100)
[2]
  Insecticidal effect, Test Example 1: A (100)
[3]
  Insecticidal effect, Test Example 2: A (100)

## CC(C)NC(=O)c1c(C(=O)Nc2ccc3c(c2)OC(F)(F)C(F)(F)O3)cccc1[N+](=O)[O-] [compound 976]
[1]
  Insecticidal effect, Test Example 3: A (100)
[2]
  Insecticidal effect, Test Example 1: A (100)
[3]
  Insecticidal effect, Test Example 2: A (100)

## CC(C)NC(=O)c1c(Cl)cccc1C(=O)Nc1ccc2c(c1)OC(F)(F)C(F)(F)O2 [compound 977]
[1]
  Insecticidal effect, Test Example 3: A (100)
[2]
  Insecticidal effect, Test Example 1: A (100)
[3]
  Insecticidal effect, Test Example 2: A (100)
